Experiment [1] concerns type I interferon regulatory genes INFα1 and IFNβ1. Kind of experiment: Type I interferon response in Raji cell:macrophage co-cultures. Format: cell-based, human. As to the method:
(§1) FIG. 8D: Macrophage:Toledo lymphoma co-cultures were harvested 2 hours into phagocytosis assays in the presence of rituximab ([…]), SIRPα-Fc-CD40L ([…]), or the combination of both agents. Macrophages were isolated by CD11b+ FACS, RNA was prepared, cDNA synthesized, and gene expression (IFNa1, IFNb1, CD80, and CD86) assessed by qRT-PCR. Fold change was calculated using DDCT and values obtained from the housekeeping gene ACTB, and the corresponding values from untreated samples. […] After 2 hours, co-cultures were isolated from tissue culture vessels and were stained with a fluorescently conjugated CD11b antibody to discriminate macrophages. Cells were then assessed by flow cytometry for the co-localization of fluorescent signal from both cells types. Identical assays were set up where macrophages were pre-incubated for 1 hour with 20 μg/mL of a commercially available Fc block cocktail or with 20 μg/mL of a CD40 blocking antibody or with 5 μg/mL of a calreticulin blocking peptide. FIG. 8G: RAW 264.7-Lucia ISG cells were cultured with A20 lymphoma cells in the presence of […] of mSIRPα-Fc-CD40L, recombinant Fc-mCD40L, mSIRPα-Fc, or their combination, 1 mg/mL anti-mCD20, or the combination of mSIRPα-Fc-CD40L and anti-mCD20. After 24-hours type I interferon induced luminescence was assessed using a luminometer. The maximum luminescence (RLU) from each experiment was set to 1, and all other samples were normalized accordingly. Values from repeat experiments are shown.

Experiment [2] has as its system IFNα1, IFNβ1, CD80 and CD86 expression in macrophages. Kind of experiment: qRT-PCR of macrophages sorted from macrophage:Toledo lymphoma co-cultures. Format: cell-based, human. Set-up: macrophage activation and type I interferon gene expression: dose or concentration left out as unconfirmed. How it is done: as §1
RNA was prepared from macrophages isolated using fluorescent activated cell sorting (FACS) from SIRPα-Fc-CD40L/Rituximab treated co-cultures macrophages and Toledo lymphoma cells. The RNA was assessed by qRT-PCR for expression of IFNα1 and IFNβ1, and the macrophage activation markers CD80 and CD86.

Experiment [3] deals with MCF7 (low Her2-expressing breast cancer cell line). Kind of experiment: Macrophage engulfment of MCF7 cells. In kind it is cell-based, human. Conditions: monotherapy.
In a further experiment the test system is CT26 tumor cells. Kind of experiment: CT26 tumor model, checkpoint antibody combinations (first Example 8). In kind it is in vivo, BALB/C mice. As to the method:
In FIG. 15B, the treatments included: an anti-CTLA-4 antibody (9D9), an anti-PD-1 antibody (RMP1-14), an anti-OX40 antibody (OX86), or the SIRPα(CD172a)-Fc-CD40L chimeric protein. […] In FIG. 15D, the treatments included the SIRPα(CD172a)-Fc-CD40L chimeric protein then the anti-CTLA-4 antibody. Tumor sizes were assayed every other day until the 27th day after inoculation.

A further experiment has as its system CT26 tumors. Briefly: Syngeneic CT26 colon tumor model vs CD40 agonist and CD47 blocking antibodies (Example 11). In kind it is in vivo, mice. From the text:
Mice were inoculated with CT26 tumors on day 0 and treated at a later starting date than FIG. 20A with mSIRPα-Fc-CD40L ARC on days 7, 9, and 11. […] In FIG. 20D and FIG. 20E, BALB/C mice were inoculated with WEHI3 tumors (FIG. 20D) or A20 tumors (FIG. 20E) subcutaneously on the rear flank, and then treated via IP injection with anti-CD20 or mSIRPα-Fc-CD40L on days 7, 9, and 11 (WEHI3) or days 10, 12, and 14 (A20); when tumors were established and reached approximately 57-60 mm^3. A cohort of mice were pre-treated with an interferon alpha receptor 1 (IFNAR1) blocking antibody ([…] by IP injection) on days −1, 1, and 10 (WEHI3) or on days −1, 1, and 13 (A20). […] Samples were normalized to untreated animals.
Implanted CT26 tumors were allowed to grow to […] before treatment was initiated with a fixed regimen of two doses of either a CD40 agonist antibody (clone FGK4.5), a CD47 blocking antibody (clone MIAP301), a combination of the two antibodies, or the murine SIRPα-Fc-CD40L chimeric protein.

The next experiment concerns WEHI3 tumors. Briefly: WEHI3 tumor model. In kind it is in vivo, BALB/C mice. As to the method: FIG. 20C: a similar CT26 experiment was initiated as described in FIG. 20A above, however mice were pre-treated on days −1, 1, and 10 with IP injections of 100 μg of either or both CD4/CD8 depleting antibodies. Mice were inoculated with CT26 tumors on day 0 and treated at a later starting date than FIG. 20A with mSIRPα-Fc-CD40L ARC on days 7, 9, and 11. […] In FIG. 20D and FIG. 20E, BALB/C mice were inoculated with WEHI3 tumors (FIG. 20D) or A20 tumors (FIG. 20E) subcutaneously on the rear flank, and then treated via IP injection with anti-CD20 or mSIRPα-Fc-CD40L on days 7, 9, and 11 (WEHI3) or days 10, 12, and 14 (A20); when tumors were established and reached approximately 57-60 mm^3. A cohort of mice were pre-treated with an interferon alpha receptor 1 (IFNAR1) blocking antibody ([…] by IP injection) on days −1, 1, and 10 (WEHI3) or on days −1, 1, and 13 (A20). FIG. 20F to FIG. 20H are graphs showing blockade of CD4, CD8, and IFNAR1. Peripheral blood analysis by flow cytometry of CD4 (FIG. 20F), CD8 (FIG. 20G), and IFNAR1 (FIG. 20H) depletion following depleting antibody treatment corresponding to FIG. 20C to FIG. 20E. Samples were normalized to untreated animals.
In a second set of experiments, a combination of an anti-IFNAR-1 antibody and the anti-CD20 antibody, the SIRPα(CD172a)-Fc-CD40L chimeric protein in combination with the anti-IFNAR-1 antibody, and a triple combination of the SIRPα(CD172a)-Fc-CD40L chimeric protein, the anti-IFNAR-1 antibody, and the anti-CD20 antibody were tested. […] The depletion of IFNAR1+ cells was confirmed at multiple time points in the peripheral blood by flow cytometry (FIG. 20H).

A further experiment relates to tumors. Briefly: In vivo tumor model, SIRPα-Fc-OX40L with checkpoint antibodies (Example 14). Set-up: species or system mice. How it is done: The in vivo ability of combinations of the SIRPα-Fc-OX40L chimeric protein with anti-CTLA-4 antibodies or the SIRPα-Fc-OX40L chimeric protein with anti-PD-1 antibodies to target and treat tumors was determined.
Where [4] appears, read: combination with anti-CD20 antibody.
Setting [5] is: combination with anti-CTLA-4 antibody.
The mark [6] stands for this setting: combination with anti-PD-1 antibody.

The record followed here is US20210379153A1, “COMBINATION THERAPIES COMPRISING SIRP ALPHA-BASED CHIMERIC PROTEINS” (Shattuck Labs, Inc., priority 2018, published 2021).

Regarding “SIRPα-Fc-CD40L: generic name of the SIRPαECD-Fc-CD40LECD chimeric protein; human or murine version according to the experiment”, the IFNβ protein synthesis result in experiment [1] (setting [4]) is reported as “significantly greater”. For the same substance, in experiment [1] (combination with anti-CD20 antibody vs either component alone), the “RNA expression of INFα1” value is reported as “significantly greater”. For the same substance, the “RNA expression of IFNβ1” value in experiment [1] (combination with anti-CD20 antibody vs sum of alone treatments) was “greater than the sum”. In addition, in experiment [2] (combination with rituximab), the “induction of type I interferon genes” value is “enhanced”. In experiment [2] (monotherapy, 2 hours), the “macrophage activation and type I interferon gene expression” value was “induced macrophage activation and the expression of type I interferon genes”. The phagocytosis entry in experiment [3] is “demonstrated monotherapy activity”. Besides, the “improvement in tumor volume” value in the experiment on CT26 tumor cells (chimeric protein administered after the anti-CTLA-4 antibody) was “most significant improvement”. The tumor volume entry in the experiment with CT26 tumor cells (setting [5]) was “reduced tumor volume”. Also, the “proportion of AH1-tetramer positive CD8+ T cells in tumor and spleen” value in the experiment on CT26 tumors (13 days following tumor inoculation) is given as “increase in the proportion”. Besides, the “therapeutic benefit with CD4 depletion” value with CT26 tumors (antibody-mediated depletion of CD4+ cells) is on record as “partially required”. Also, the “therapeutic benefit with CD8 depletion” value in the experiment with CT26 tumors (antibody-mediated depletion of CD8+ cells) is “completely eliminated the therapeutic benefit”. Besides, the values for the tumor size result in the experiment with WEHI3 tumors (setting [4]), in the experiment with tumors (setting [5]) and with tumors (setting [6]) were “reduced tumor size greater than either component alone”, “effective in reducing tumor size” and “effective in reducing tumor size”, respectively. In addition, the tumor reduction result in the experiment on WEHI3 tumors (combination with anti-IFNAR-1 antibody vs chimeric protein alone) is “less tumor reduction”; in the experiment with WEHI3 tumors (triple combination with anti-CD20 and anti-IFNAR-1 antibodies vs chimeric protein plus anti-CD20), “less tumor reduction”. Also, the “rejection of primary tumor” value in the experiment with tumors (combination of chimeric protein and antibody) is on record as “able to reject primary tumor”. For the same substance, the survival entry in the experiment on tumors (setting [5]) and in the experiment with tumors (setting [6]) was “any survivors by the sixteenth day” throughout.
